# Reference: US20230407243A1, “GENETIC PLATFORM TO INVESTIGATE THE FUNCTIONS OF BACTERIAL DRUG EFFLUX PUMPS” (priority 2022, published 2023)
# Like-named read-outs stand apart in the source and are kept apart here.
# Experiments:
# Format in all cases: cell-based, Escherichia coli
# EKO-35 araC::mexCD Pore = test: MIC susceptibility profiling, porinated efflux platform; settings: for Fold changes of MICs: EKO-35 araC::mexCD Pore compared to EKO-35-Pore; for Minimum inhibitory concentration / MIC: EKO-35 araC::mexCD Pore, technical duplicate; for MIC: Escherichia coli, read-out: Minimum inhibitory concentration
# Outline: (§1)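 MIC values come from background-corrected OD600 readings (pre-incubation OD subtracted) after 18 h at 37 °C and 900 rpm in MHB II. Compounds were tested in duplicate as 2-fold dilutions. The inoculum came from 18 h LB cultures adjusted to OD600 ~1.0 and diluted 1/2000, and the pore-bearing strains were vancomycin-checked beforehand.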
# EKO-35 araC::emrKY Pore = test: as above; settings: for Fold changes of MICs: EKO-35 araC::emrKY Pore compared to EKO-35-Pore; for Minimum inhibitory concentration / MIC: EKO-35 araC::emrKY Pore, technical duplicate; for MIC: Escherichia coli, read-out: Minimum inhibitory concentration
# Outline: as §1
# EKO-35 araC::mdtBC Pore = test: as above; settings: for Fold changes of MICs: EKO-35 araC::mdtBC Pore compared to EKO-35-Pore; for Minimum inhibitory concentration / MIC: EKO-35 araC::mdtBC Pore, technical duplicate; for MIC: Escherichia coli, read-out: Minimum inhibitory concentration
# Outline: as §1
# EKO-35 araC::mdtEF Pore = test: as above; settings: for Fold changes of MICs: EKO-35 araC::mdtEF Pore compared to EKO-35-Pore; for Minimum inhibitory concentration, EKO-35 araC::mdtEF Pore / MIC: Table 14A, porinated, technical duplicate; for MIC: Escherichia coli, read-out: Minimum inhibitory concentration, EKO-35 araC::mdtEF Pore
# Outline: as §1
# EKO-35 araC::macAB Pore = test: as above; settings: for Fold changes of MICs: EKO-35 araC::macAB Pore compared to EKO-35-Pore; for Minimum inhibitory concentration / MIC: EKO-35 araC::macAB Pore, technical duplicate; for MIC: Escherichia coli, read-out: Minimum inhibitory concentration
# Outline: as §1
# [1] = system: wild-type E. coli K-12 str. BW25113; test: microbe, parasite or virus in culture; settings: for MIC: Escherichia coli
# Description: (§2) Single colonies were used to inoculate 3 mL of LB followed by incubation at 37° C. for 18 h with aeration at 220 rpm. The bacterial cells were harvested by centrifugation and resuspended in phosphate buffered saline (PBS) ([pH 7.4], 137 mM NaCl (Bioshop), 2.7 mM KCl (Bioshop), 10 mM Na2PO4 (Bioshop) and 1.8 mM K2PO4) to an OD600 nm˜1.0, followed by 1/2000 dilution into MHB II.
# (§3) To a 384-well microtiter plate (Corning, untreated polystyrene), 500 nL of compound was dispensed, in duplicate, and serially titrated 2-fold using an Echo 550 acoustic liquid dispenser (Labcyte Inc.). […] As a solvent control, 500 nL of DMSO was applied to wells that contained no compound. Using a multichannel pipette, 50 μL of the prepared bacterial inoculum was applied to each well. To enable background correction post-incubation, the OD600 nm was measured (Biotek Synergy Neo2 microplate reader) prior to incubation. The plates were incubated at 37° C. with aeration at 900 rpm for 18 h. The plates were equilibrated to room temperature and the OD600 nm measured using a BioTek Synergy Neo2 microplate reader. Data was analyzed in both Prism (GraphPad, Version 9.2.0) and Microsoft Excel (Version 16.53). Raw data were input into Microsoft Excel and the pre-incubation OD600 nm measurements were subtracted from the post-incubation OD600 nm measurements. These corrected measurements were input into Prism 9 as a grouped analysis. […] All other MIC values were adjusted accordingly and visualized using the single-color scale grouped heat map function. Identification of compound chemical properties was achieved using DataWarrior (Version 5.5.0). Using PubChem, the SMILES chemical notation for each compound was obtained and compiled in Microsoft Excel. The resulting spreadsheet was input into DataWarrior and properties were calculated from the compound chemical structures.
# E. coli ΔtolC = test: microbe, parasite or virus in culture; settings: for Minimum inhibitory concentration (MIC), ΔtolC: Table 10, without pore; for Minimum inhibitory concentration (MIC), ΔtolC / Minimum Inhibitory Concentration, ΔtolC: technical duplicate; for Minimum Inhibitory Concentration, ΔtolC: Table 13A, non-porinated; for MIC: Escherichia coli, 18 h, read-out: Minimum Inhibitory Concentration, ΔtolC
# Description: as §2, §3
# E. coli EKO-35 = test: microbe, parasite or virus in culture; settings: for Fold change of MICs: EKO-35 compared to EKO-35 (reference); for MIC: Escherichia coli
# Description: as §2, §3
# [2] = Table 10, without pore, technical duplicate
# [3] = Table 13A, non-porinated, technical duplicate
# [4] = BW25113, Table 10, without pore, technical duplicate, read-out: Minimum inhibitory concentration (MIC), K-12
# [5] = BW25113, Table 13A, non-porinated, technical duplicate, read-out: Minimum Inhibitory Concentration, K-12
# [6] = EKO35, Table 10, without pore, technical duplicate, read-out: Minimum inhibitory concentration (MIC), EKO-35
# [7] = EKO35, Table 13A, non-porinated, technical duplicate, read-out: Minimum Inhibitory Concentration, EKO-35
SMILES,Fold changes of MICs (EKO-35 araC::mexCD Pore) [fold],Minimum inhibitory concentration (EKO-35 araC::mexCD Pore) [µg/mL],Fold changes of MICs (EKO-35 araC::emrKY Pore) [fold],Minimum inhibitory concentration (EKO-35 araC::emrKY Pore) [µg/mL],Fold changes of MICs (EKO-35 araC::mdtBC Pore) [fold],Minimum inhibitory concentration (EKO-35 araC::mdtBC Pore) [µg/mL],Fold changes of MICs (EKO-35 araC::mdtEF Pore) [fold],"Minimum inhibitory concentration, EKO-35 araC::mdtEF Pore (EKO-35 araC::mdtEF Pore) [µg/mL]",Fold changes of MICs (EKO-35 araC::macAB Pore) [fold],Minimum inhibitory concentration (EKO-35 araC::macAB Pore) [µg/mL],"Minimum inhibitory concentration (MIC), K-12 [1, 2] [µg/mL]","Minimum Inhibitory Concentration, K-12 [1, 3] [µg/mL]","Minimum inhibitory concentration (MIC), ΔtolC (E. coli ΔtolC) [µg/mL]","Minimum Inhibitory Concentration, ΔtolC (E. coli ΔtolC) [µg/mL]",Fold change of MICs (E. coli EKO-35) [fold],"Minimum inhibitory concentration (MIC), EKO-35 (E. coli EKO-35; [2]) [µg/mL]","Minimum Inhibitory Concentration, EKO-35 (E. coli EKO-35; [3]) [µg/mL]",MIC (EKO-35 araC::mexCD Pore) [µg/mL],MIC (EKO-35 araC::emrKY Pore) [µg/mL],MIC (E. coli ΔtolC) [µg/mL],also measured
N#CC(=NNc1cccc(C(F)(F)F)c1)C(=O)c1ccsc1 [compound 3],1,320,1,320,1,320,1,320,1,320,320,320,2.5,2.5,1,320,320,,,,
CC[C@H]1OC(=O)[C@H](C)[C@@H](O[C@H]2C[C@@](C)(OC)[C@@H](O)[C@H](C)O2)[C@H](C)[C@@H](O[C@@H]2O[C@H](C)C[C@H](N(C)C)[C@H]2O)[C@](C)(O)C[C@@H](C)CN(C)[C@H](C)[C@@H](O)[C@]1(C)O [azithromycin],2,,1,,1,,4,,2,,,,0.781,,1,,,0.098,0.024,0.781,"efflux pump-mediated resistance vs EKO-35-Pore (EKO-35 araC::mexCD Pore; MexCD, OM compromised): no longer associated MexCD with resistance; MIC (EKO-35 araC::mdtBC Pore): 0.049 µg/mL; MIC (EKO-35 araC::mdtEF Pore): 0.195 µg/mL; MIC (EKO-35 araC::macAB Pore): 0.098 µg/mL; fold increase of MIC over EKO-35 (EKO-35 araC::macAB Pore; MacAB with a porinated OM): 2 fold; MIC [1, 4]: 6.25 µg/mL; MIC [1, 5]: 6.25 µg/mL; MIC (E. coli EKO-35; [6]): 0.781 µg/mL; MIC (E. coli EKO-35; [7]): 0.781 µg/mL"
CC(C)c1ccc(C=C(C#N)c2nc3ccccc3[nH]2)cc1 [compound 12],2,320,2,320,2,320,,320,2,320,320,320,1.25,1.25,1,320,320,,,,
N#CC(C#N)=NNc1ccc(-n2ccc(C(F)(F)F)n2)cc1 [compound 8],1,80,1,80,1,80,1,80,1,80,640,640,1.25,1.25,1,320,320,,,,
CC1(C)S[C@@H]2[C@H](NC(=O)[C@H](N)c3ccccc3)C(=O)N2[C@H]1C(=O)O [ampicillin],1,,2,,1,,1,,1,,,,25,,1,,,1.56,3.12,25,"MIC (EKO-35 araC::mdtBC Pore): 0.781 µg/mL; MIC (EKO-35 araC::mdtEF Pore): 1.56 µg/mL; MIC (EKO-35 araC::macAB Pore): 1.56 µg/mL; MIC [1, 4]: 100 µg/mL; MIC [1, 5]: 100 µg/mL; MIC (E. coli EKO-35; [6]): 25 µg/mL; MIC (E. coli EKO-35; [7]): 25 µg/mL"
O=C(N[C@H](CO)[C@H](O)c1ccc([N+](=O)[O-])cc1)C(Cl)Cl [chloramphenicol],1,,1,,1,,1,,1,,,,1.563,,1,,,0.781,0.391,1.56,"MIC (EKO-35 araC::mdtBC Pore): 0.781 µg/mL; MIC (EKO-35 araC::mdtEF Pore): 0.781 µg/mL; MIC (EKO-35 araC::macAB Pore): 0.781 µg/mL; MIC [1, 4]: 6.5 µg/mL; MIC [1, 5]: 6.25 µg/mL; MIC (E. coli EKO-35; [6]): 0.781 µg/mL; MIC (E. coli EKO-35; [7]): 0.781 µg/mL"
[H]/N=C(/N)N[C@H]1[C@H](O)[C@@H](O)[C@H](O[C@@H]2O[C@@H](C)[C@](O)(C=O)[C@H]2O[C@@H]2O[C@@H](CO)[C@H](O)[C@@H](O)[C@@H]2NC)[C@@H](N/C(N)=N\[H])[C@@H]1O [Streptomycin],1,,1,,1,,1,,1,,,,3.125,,1,,,3.12,3.12,3.12,"MIC (EKO-35 araC::mdtBC Pore): 3.12 µg/mL; MIC (EKO-35 araC::mdtEF Pore): 3.12 µg/mL; MIC (EKO-35 araC::macAB Pore): 3.12 µg/mL; MIC [1, 4]: 6.25 µg/mL; MIC [1, 5]: 6.25 µg/mL; MIC (E. coli EKO-35; [6]): 3.12 µg/mL; MIC (E. coli EKO-35; [7]): 3.12 µg/mL"
O=c1oc(-c2ccccc2Cl)nn1-c1ccc(C(F)(F)F)cn1 [compound 5],16,320,1,10,,10,,320,1,10,320,320,10,10,1,20,20,,,,susceptibility of EKO-35 to the compound (E. coli EKO-35; synthetic efflux substrates of FIG. 12): susceptible
NCCCNCCCCNCCCN [Spermine],1,,1,,1,,1,,1,,,,2000,,1,,,,,2000,"MIC ([1]; BW25113, read-out: Minimum Inhibitory Concentration, K-12): 2000 µg/mL; MIC ([1]; BW25113, read-out: Minimum inhibitory concentration (MIC), K-12): 2000 µg/mL; MIC (E. coli EKO-35; EKO35, read-out: Minimum Inhibitory Concentration, EKO-35): 2000 µg/mL; MIC (E. coli EKO-35; EKO35, read-out: Minimum inhibitory concentration (MIC), EKO-35): 2000 µg/mL"
